# Assays:
# [1] = tested on: gastrointestinal stromal tumor; experiment: M-score (sensitivity index) from tumor-associated marker assays on tumor tissue culture; assay type: cell-based, human; conditions: Patient 1, gastrointestinal stromal tumor
# Procedure: The tumor tissue cultures were also evaluated using standard assays for tumor proliferation, tumor cell death, tumor morphology, and tumor cell viability as previously described, including tetrazolium salt WST-1 viability assay; LDH release; ATP uptake; glucose uptake; Caspase 3, Caspase 8, and Ki67 expression; and H&E staining. The results of the assays for tumor-associated markers were used to generate assessment scores that were input into a machine-trained algorithm to generate a clinical outcome predictor in the form of an “M-score” for each patient.
# M-score based on tumor-associated markers was determined for each of the tissue pairs as previously described.
# (§1) The M-score based on tumor-associated markers and tumor:stroma ratio of CD56+ cells in tumor tissue cultures under control conditions or under pressure from treatment with anticancer drug regimens was determined as described above for 3 different patients whose clinical outcome in response to the respective treatment was known.
# [2] = tested on: gastrointestinal stromal tumor; experiment: CD56+ NK cell tumor:stroma ratio by IHC in tumor tissue culture; assay type: cell-based, human; conditions: Patient 1, gastrointestinal stromal tumor; control ratio 3
# Procedure: The spatial heterogeneity of CD56+ lymphocytes (NK) in areas of tumor vs stroma in pairs of tissues (for control and treatment conditions) from each of a number of patients cultured in the tumor microenvironment platform and treated with various conventional and immuno-modulatory therapies was investigated. IHC analysis for CD56+ cells in slices of tissues under treatment and control conditions was performed, and the number of CD56+ cells in tumor and stromal regions was determined (FIG. 2A). M-score based on tumor-associated markers was determined for each of the tissue pairs as previously described. The ratio of CD56+ cells in areas of tumor cells vs areas of stroma in untreated and drug pressure conditions from the tissue pairs was calculated (FIG. 2B), and the fold change from vehicle to treatment conditions for each pair was determined and binned by M-score >25 and M-score ≤25 (FIG. 2C).
# The predictive power of the change in spatial heterogeneity of CD56+NK cells in areas of tumor vs stroma under pressure from treatment with anticancer drug regimens was evaluated. […]
# [3] = tested on: gastrointestinal stromal tumor; experiment: Known clinical outcome of the patient in response to the treatment; assay type: in vivo, human; conditions: Patient 1, gastrointestinal stromal tumor
# Procedure: as §1
# [4] = tested on: Human lung cancer sections; experiment: Patient-derived ex-vivo tumor explant culture on tumor microenvironment platform; H&E and IHC for cleaved caspase 3, MICA/B and CD56; assay type: cell-based; conditions: cultured 72 hours in tumor microenvironment platform, IHC, FIG. 1
# Procedure: The relevance of changes in the immune contexture of the tumor tissue culture microbed for a non-immunmodulatory agent, either as monotherapy or in combination with an immunomodulatory agent, was examined. Human lung cancer sections from the same patient cultured for 72 hours in the tumor microenvironment platform with gefitinib (a small molecule kinase inhibitor) alone, osimertinib (another small molecule kinase inhibitor)+Pembrolizumab, or vehicle control were assayed for H&E staining and cleaved caspase 3, MICA/B (cell surface ligands that bind immunoreceptors present on natural killer (NK) cells), and CD56 (marker of NK cells) expression.
Compound,M-score [1],M-score prediction [1],Treatment CD56+ tumor:stroma ratio [2],Clinical response [3],Cleaved caspase 3 expression ([4]; vs vehicle control),infiltration of NK cells (CD56) ([4]; vs vehicle-treated),tumor cell MICA/B expression ([4]; vs vehicle-treated)
CC[C@@]1(O)C(=O)OCc2c1cc1n(c2=O)Cc2cc3c(CN(C)C)c(O)ccc3nc2-1 [topotecan],(M-score = 36),Responder,5,Responder,–,–,–
COc1cc2ncnc(Nc3ccc(F)c(Cl)c3)c2cc1OCCCN1CCOCC1 [gefitinib],–,–,–,–,significantly increased,increase,increase

# Reference: US20190361006A1, “METHOD OF PREDICTING CLINICAL OUTCOME OF ANTICANCER AGENTS” (MITRA RXDX, INC., priority 2017, published 2019)
